Measured values from US20110319392A1, “Thiazole Sulfonamide And Oxazole Sulfonamide Kinase Inhibitors” (priority 2009, published 2011).

How the values were obtained:
[1] = biological target: T1, EGFR (Homo sapiens, UniProt P00533); experiment: EGFR substrate phosphorylation assay (HTRF); format: biochemical
T1 construct: made in house; host or cells: baculovirus expression system
Method: (§1) Compounds of the present invention were tested for EGFR and ErbB-2 protein tyrosine kinase inhibitory activity in substrate phosphorylation assays using enzymes purified from a baculovirus expression system. Reagent production was conducted essentially as described in Brignola, P. S., et al, (2002) J. Biol. Chem. 277(2):1576-1585.
(§2) The method measures the ability of the isolated enzyme to catalyse the transfer of the gamma-phosphate from ATP onto the tyrosine residue of a biotinylated synthetic peptide referenced “Peptide C” in Brignola, P. S., et al, (2002) J. Biol. Chem. 277(2):1576-1585. The extent of tyrosine phosphorylation was measured using an anti-phosphotyrosine antibody, and quantified by homogenous time-resolved fluorescence (HTRF).
(§3) Reactions were performed in black 384-well polystyrene flat-bottom plates in a final volume of 20 μL. Assays were performed by adding 10 μL of each of the following solutions, Substrate Mix and Enzyme Mix: The Substrate Mix contained 100 mM 3-[N-morpholino]propanesulfonic acid (MOPS) (pH 7.5), 2 mM MnCl2, 20 μM ATP, 0.01% Tween-20, 0.1 mg/mL (BSA), 0.8 uM peptide substrate, and 1 mM dithiothreitol. The Enzyme Mix contained 100 mM MOPS (pH7.5); 0.01% Tween-20; 0.1 mg/mL BSA, and either 0.8 nM EGFR, 10 nM ErbB2, or 1 nM ErbB4. The Enzyme Mix was added to the compound plates and the plates were incubated at 20° C. for 1 hr. The reactions were then started by adding the Substrate Mix.
(§4) After initiating the reaction with the method described above, the reactions were allowed to proceed for 90 minutes at 20° C. The reactions were then terminated by the addition of 20 μL 100 mM EDTA to each well. 40 μL/well of HTRF detection mix were added to the assay plates. The final concentrations of the detection reagents were: 100 mM HEPES (pH7.5), 0.1 mg/mL BSA, 15 nM streptavidin-labeled allophycocyanin (PerkinElmer), and 1 nM europium-labeled anti-phosphotyrosine antibody (Perkin Elmer). Assay plates were left unsealed and were counted in a Wallac Multilabel Counter 1420 (PerkinElmer).
(§5) Compounds under analysis were dissolved in dimethylsulfoxide (DMSO) to 1.0 mM and serially diluted 1 to 3 with DMSO through twelve dilutions. 1 μL of each concentration was transferred to the corresponding well of an assay plate. This creates a final compound concentration range from 0.00027 to 47.6 μM.
(§6) The data for dose responses were plotted as % Inhibition calculated with the data reduction formula 100*(1-(U1−C2)/(C1−C2)) versus concentration of compound where U1 is the unknown value, C1 is the average control value obtained for 4.76% DMSO, and C2 is the average control value obtained for 0.035 M EDTA. Data were fitted with a curve described by:
(§7) where Vmax is the upper asymptote, Y2 is the Y intercept, and K is the IC50. The results for each compound were recorded as pIC50s, calculated as follows: […]

[2] = tested on: Colo205 tumor cells; experiment: Cell growth inhibition assay (CellTiter-Glo), Colo205; format: cell-based, Human; settings: Homo sapiens, COLO 205, 72 h; 3 days incubation
Method: (§8) Human breast tumor cells (BT474) were cultured in RPMI (Mediatech […]), containing 10% FBS (JRH Biosciences 12176) and 1% penicillin-streptomycin (Invitrogen 15140). Human head and neck tumor cells (HN5) were cultured in high glucose DMEM (Mediatech 50-013-PB) containing 10% FBS and 1% penicillin-streptomycin. Human colon tumor cells (Colo205) were cultured in RPMI (Mediatech 50-020-PB) containing 10% FBS and 1% penicillin-streptomycin. Human melanoma cancer cells (SK-MEL-28) were cultured in EMEM with nonessential amino acids (Mediatech 50-011-PB) containing 10% FBS, 1% sodium pyruvate (JT Baker 3354-04), and 1% penicillin-streptomycin. Human melanoma cancer cells (A375P F11s) were cultured in RPMI (Mediatech 50-020-PB) containing 10% FBS, 1% sodium pyruvate, and 1% penicillin-streptomycin. Human colon cancer cells (HT-29) were cultured in high glucose DMEM (Mediatech 50-013-PB) containing 10% FBS and 1% penicillin-streptomycin. Human melanoma cancer cells (SK-MEL-3) were cultured in McCoy's 5A (50-025-PB) containing 15% FBS, and 1% penicillin-streptomycin. All cell lines were maintained at 37° C. in a humidified 5% CO2, 95% air incubator. Cells were harvested using trypsin/EDTA (Invitrogen 25200), counted using a haemocytometer, and plated. For 96-well assays (using white full-area NUNC plates cat. #136102), cells were plated in 105 μL at the following densities (cells/well): HNS, 500; Colo 205, 500; SK-MEL-28, 500; A375P F11s, 500; HT-29, 500; SK-MEL-3, 500; and BT474, 3000. For 384-well assays (white full-area NUNC plates, cat. #781080), cells were plated in 48 μL at the following densities (cells/well): HNS, 500; Colo205, 500; SK-MEL-28, 500; A375P F11s, 500; HT-29, 500; SK-MEL-3, 500; and BT474, 2000.
(§9) The next day, compounds were diluted as follow: For 96-well assays, 13.5 μL of compound in DMSO were diluted using nine (9) serial 1:3 dilutions of 4.5 μL in 9 of DMSO. Medium (270 μL/well of RPMI with 10% FBS and 1% penicillin-streptomycin) was added to the plates. Aliquots (7 μL) were added to cells in the final assay giving a final DMSO concentration of 0.2%. For 384-well assays, 15 μL of compound in DMSO were diluted using nine (9) serial 1:3 dilutions of 5 μL in 10 μL of DMSO, followed by a further dilution of 5 μL of compound with 95 μL of medium, of which 2 μL were added to cells in the final assay giving a final DMSO concentration of 0.2%. Cells were incubated at 37° C., 5% CO2 for 3 days.
(§10) Total ATP was measured (as a surrogate estimate of cell number) using CellTiter-Glo® reagent (Promega G7571). Briefly, plates were removed from the incubator and allowed to equilibrate to room temperature for 30 minutes. CellTiter-Glo® (25 μL or 55 μL for 384-well or 96-well assays, respectively) reagent was added to each well and plates were shaken on an orbital plate shaker for 2 minutes. Plates were incubated without shaking for a further 30 minutes and read on an LJL Analyst GT reader in luminometer mode with an integration time of 0.5 seconds per well. Percent inhibition of cell growth was calculated relative to DMSO vehicle-treated control wells. Concentration of compound required to give 50% inhibition of vehicle-treated control cell growth (IC50) was interpolated using a 4-parameter fit for determining IC50 using the following equation: Y=A +((B−A)/(1+((C/X)̂D))) where […].

[3] = biological target: B-Raf (Homo sapiens, UniProt P15056); experiment: B-Raf Accelerated MEK ATPase assay (BRAMA), Method A or B; format: biochemical; settings: Method B: final MEK 150 nM, single end point read
Method: Compounds of the present invention were tested for B-Raf protein serine kinase inhibitory activity in a B-Raf Accelerated MEK ATPase assay (BRAMA). The BRAMA assay is a high sensitivity assay which measures an intrinsic MEK-mediated ATP hydrolysis uncoupled from downstream ERK phosphorylation by coupling the formation of ADP to NADH oxidation through the enzymes pyruvate kinase and lactate dehydrogenase. When ADP production is initiated by addition of catalytic amounts of an activated Raf enzyme and non-phosphorylated MEK, one observes robust ADP production concomitant with Raf-mediated phosphorylation of MEK.
Method A: Specific details of the assay are disclosed in: C. Rominger, M. Schaber, E. May. Assay for B-Raf Activity Based on Intrinsic MEK ATPase Activity. Statutory Invention Registration 11/084,993 (March, 2005). Method B: The method is the same as method A, but includes the following changes: 1) the assay was performed with a final MEK concentration of 150 nM and 2) the assay was read as single end point instead of a kinetic read.

[4] = biological target: T2, ErbB2 (Homo sapiens, UniProt P04626); experiment: ErbB-2 substrate phosphorylation assay (HTRF); format: biochemical
T2 construct: made in house; host or cells: baculovirus expression system
Method: as §1, §2, §3, §4, §5, §6, §7

[5] = tested on: SK-MEL-28 tumor cells; experiment: Cell growth inhibition assay (CellTiter-Glo), SK-MEL-28; format: cell-based, Human; settings: Homo sapiens, SK-MEL-28, 72 h; 3 days incubation
Method: as §8, §9, §10

Chain of B-Raf (P15056 whole entry): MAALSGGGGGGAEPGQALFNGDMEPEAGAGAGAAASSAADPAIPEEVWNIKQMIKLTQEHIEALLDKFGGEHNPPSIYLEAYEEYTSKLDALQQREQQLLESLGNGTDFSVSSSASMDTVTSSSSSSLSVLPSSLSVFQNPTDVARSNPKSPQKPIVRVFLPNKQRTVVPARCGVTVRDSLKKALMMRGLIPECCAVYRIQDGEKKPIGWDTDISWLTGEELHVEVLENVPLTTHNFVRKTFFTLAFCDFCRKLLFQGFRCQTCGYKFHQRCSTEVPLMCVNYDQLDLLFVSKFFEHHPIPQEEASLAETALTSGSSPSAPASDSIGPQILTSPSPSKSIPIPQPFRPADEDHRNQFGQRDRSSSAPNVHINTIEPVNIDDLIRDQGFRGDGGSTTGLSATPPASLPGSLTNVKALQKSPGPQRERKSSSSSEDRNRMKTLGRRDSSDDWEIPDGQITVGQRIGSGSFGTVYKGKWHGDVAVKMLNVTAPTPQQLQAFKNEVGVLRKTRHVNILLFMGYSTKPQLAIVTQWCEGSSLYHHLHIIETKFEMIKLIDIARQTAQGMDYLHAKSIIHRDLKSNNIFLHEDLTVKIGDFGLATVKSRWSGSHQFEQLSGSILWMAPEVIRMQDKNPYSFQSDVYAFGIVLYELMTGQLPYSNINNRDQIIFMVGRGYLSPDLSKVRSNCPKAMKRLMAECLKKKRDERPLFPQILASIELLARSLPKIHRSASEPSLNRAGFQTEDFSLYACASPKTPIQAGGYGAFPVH
T1 sequence (P00533 25-1210): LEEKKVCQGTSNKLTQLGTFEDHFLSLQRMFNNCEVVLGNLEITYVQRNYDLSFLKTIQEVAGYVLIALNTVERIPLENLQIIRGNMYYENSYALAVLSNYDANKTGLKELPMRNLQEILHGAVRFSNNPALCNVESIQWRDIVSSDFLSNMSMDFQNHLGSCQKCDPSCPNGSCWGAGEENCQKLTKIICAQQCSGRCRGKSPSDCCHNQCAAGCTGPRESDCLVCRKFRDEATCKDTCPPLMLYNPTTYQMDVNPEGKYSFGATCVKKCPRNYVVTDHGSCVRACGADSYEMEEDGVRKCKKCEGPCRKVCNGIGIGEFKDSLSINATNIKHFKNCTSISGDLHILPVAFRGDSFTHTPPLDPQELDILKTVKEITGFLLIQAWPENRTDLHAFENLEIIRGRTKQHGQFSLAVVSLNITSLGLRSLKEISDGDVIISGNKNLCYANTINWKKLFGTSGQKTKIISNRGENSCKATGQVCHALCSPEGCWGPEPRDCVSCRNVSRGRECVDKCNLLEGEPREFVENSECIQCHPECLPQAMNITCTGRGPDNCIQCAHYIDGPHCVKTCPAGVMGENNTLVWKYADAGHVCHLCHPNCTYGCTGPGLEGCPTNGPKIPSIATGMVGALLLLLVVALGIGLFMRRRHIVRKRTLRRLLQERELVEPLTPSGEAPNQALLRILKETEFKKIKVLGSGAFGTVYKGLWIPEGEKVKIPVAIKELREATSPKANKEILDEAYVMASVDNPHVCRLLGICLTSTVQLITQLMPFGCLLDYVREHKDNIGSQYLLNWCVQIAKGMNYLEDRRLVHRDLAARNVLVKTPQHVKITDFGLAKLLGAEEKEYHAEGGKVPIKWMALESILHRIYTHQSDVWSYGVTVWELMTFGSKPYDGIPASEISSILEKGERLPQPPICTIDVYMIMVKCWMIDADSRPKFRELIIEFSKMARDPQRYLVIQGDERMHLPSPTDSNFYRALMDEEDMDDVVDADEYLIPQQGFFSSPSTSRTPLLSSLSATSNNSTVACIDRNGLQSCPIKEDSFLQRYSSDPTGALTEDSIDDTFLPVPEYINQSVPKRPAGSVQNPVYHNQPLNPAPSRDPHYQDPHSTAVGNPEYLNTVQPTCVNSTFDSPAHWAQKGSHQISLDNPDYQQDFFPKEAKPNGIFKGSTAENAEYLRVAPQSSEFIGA
T2 sequence (P04626 23-1255): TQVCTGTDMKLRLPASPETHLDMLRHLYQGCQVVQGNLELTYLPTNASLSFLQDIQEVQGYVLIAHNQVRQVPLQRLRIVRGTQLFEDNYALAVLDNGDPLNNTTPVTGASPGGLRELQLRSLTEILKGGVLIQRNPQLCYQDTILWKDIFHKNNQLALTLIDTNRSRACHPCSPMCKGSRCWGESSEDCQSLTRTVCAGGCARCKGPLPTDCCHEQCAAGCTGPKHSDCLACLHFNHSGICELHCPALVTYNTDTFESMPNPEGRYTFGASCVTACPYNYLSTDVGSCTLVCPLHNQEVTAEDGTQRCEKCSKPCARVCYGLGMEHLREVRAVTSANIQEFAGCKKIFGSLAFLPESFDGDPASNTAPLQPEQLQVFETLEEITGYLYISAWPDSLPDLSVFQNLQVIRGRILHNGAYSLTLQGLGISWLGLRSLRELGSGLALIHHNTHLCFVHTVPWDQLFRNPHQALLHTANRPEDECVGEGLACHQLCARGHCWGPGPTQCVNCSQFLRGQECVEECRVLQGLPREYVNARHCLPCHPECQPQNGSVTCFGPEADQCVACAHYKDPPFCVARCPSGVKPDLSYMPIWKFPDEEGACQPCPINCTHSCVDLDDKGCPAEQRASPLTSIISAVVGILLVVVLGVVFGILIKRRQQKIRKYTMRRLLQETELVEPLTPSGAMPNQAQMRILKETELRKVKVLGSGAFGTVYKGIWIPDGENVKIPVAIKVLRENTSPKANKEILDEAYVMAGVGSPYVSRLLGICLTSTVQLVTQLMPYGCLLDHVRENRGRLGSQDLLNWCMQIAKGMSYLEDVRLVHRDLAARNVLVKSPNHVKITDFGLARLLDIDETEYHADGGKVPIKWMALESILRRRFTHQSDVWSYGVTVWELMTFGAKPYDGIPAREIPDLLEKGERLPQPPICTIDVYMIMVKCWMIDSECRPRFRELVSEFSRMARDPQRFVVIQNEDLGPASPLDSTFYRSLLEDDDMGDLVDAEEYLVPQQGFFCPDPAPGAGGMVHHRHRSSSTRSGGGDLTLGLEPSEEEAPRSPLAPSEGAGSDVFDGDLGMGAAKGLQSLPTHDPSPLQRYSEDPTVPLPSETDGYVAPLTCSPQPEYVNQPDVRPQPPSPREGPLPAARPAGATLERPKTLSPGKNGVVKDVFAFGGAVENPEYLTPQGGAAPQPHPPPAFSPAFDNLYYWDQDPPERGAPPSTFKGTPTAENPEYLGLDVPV

SMILES	IC50 [1]	IC50 [2]	IC50 [3]	IC50 [4]	IC50 [5]
COc1cc(N2CCN(CCS(C)(=O)=O)CC2)c(C)cc1Nc1nccc(-c2sc(N)nc2-c2cccc(NS(=O)(=O)c3c(F)cccc3F)c2)n1 [Example 63]	100 to 1000 nM	100 to 1000 nM	100 to 1000 nM	< 100 nM	> 1000 nM
COc1cc(N2CCN(CCS(C)(=O)=O)CC2)c(C)cc1Nc1nccc(-c2sc(C)nc2-c2cccc(NS(=O)(=O)c3c(F)cccc3F)c2)n1 [Example 134]	< 100 nM	100 to 1000 nM	100 to 1000 nM	100 to 1000 nM	100 to 1000 nM
CC(C)c1nc(-c2cccc(NS(=O)(=O)c3cn(C)nc3C(F)(F)F)c2)c(-c2ccnc(Nc3ccc(N4CCOCC4)nc3)n2)s1 [Example 40]	> 1000 nM	> 1000 nM	100 to 1000 nM	> 1000 nM	> 1000 nM
COc1cc(N2CCN(CCS(C)(=O)=O)CC2)c(C)cc1Nc1nccc(-c2sc(CC(C)C)nc2-c2cccc(NS(=O)(=O)c3c(F)cccc3F)c2)n1 [Example 161]	< 100 nM	< 100 nM	100 to 1000 nM	< 100 nM	100 to 1000 nM
Cc1ccc(-c2nc(C(C)C)sc2-c2ccnc(Nc3ccc(N4CCOCC4)nc3)n2)cc1NS(=O)(=O)c1c(F)cccc1F [Example 111]	100 to 1000 nM	> 1000 nM	100 to 1000 nM	100 to 1000 nM	> 1000 nM
CC(C)c1nc(-c2cccc(NS(=O)(=O)c3c(F)cccc3F)c2)c(-c2ccnc(Nc3cnc(N4CCOCC4)cc3O)n2)s1 [Example 139]	> 1000 nM	100 to 1000 nM	< 100 nM	> 1000 nM	100 to 1000 nM
COc1cc(N2CCC(CCS(C)(=O)=O)CC2)c(C)cc1Nc1nccc(-c2sc(N3CCCC3)nc2-c2cccc(NS(=O)(=O)c3c(F)cccc3F)c2)n1 [Example 137]	–	< 100 nM	100 to 1000 nM	> 1000 nM	100 to 1000 nM
COc1ccc(S(C)(=O)=O)cc1Nc1nccc(-c2sc(N3CCOCC3)nc2-c2cccc(NS(=O)(=O)c3c(F)cccc3F)c2OC)n1 [Example 168]	> 1000 nM	–	< 100 nM	> 1000 nM	> 1000 nM

More lines, now with the values ahead:

IC50 [1]	IC50 [2]	IC50 [3]	IC50 [4]	IC50 [5]	SMILES
100 to 1000 nM	< 100 nM	< 100 nM	100 to 1000 nM	< 100 nM	COc1ccc(S(C)(=O)=O)cc1Nc1nccc(-c2sc(C(C)C)nc2-c2cccc(NS(=O)(=O)c3c(F)cccc3F)c2F)n1 [Example 165]
< 100 nM	< 100 nM	< 100 nM	< 100 nM	100 to 1000 nM	COc1cc(N2CCN(CCS(C)(=O)=O)CC2)c(C)cc1Nc1nccc(-c2sc(C(C)C)nc2-c2cccc(NS(=O)(=O)c3ccco3)c2)n1 [Example 55]
> 1000 nM	< 100 nM	< 100 nM	> 1000 nM	< 100 nM	COc1ccc(S(C)(=O)=O)cc1Nc1nccc(-c2sc(N3CCOCC3)nc2-c2cccc(NS(=O)(=O)c3c(F)cccc3F)c2Cl)n1 [Example 164]
> 1000 nM	100 to 1000 nM	< 100 nM	100 to 1000 nM	100 to 1000 nM	CC(C)c1nc(-c2ccc(F)c(NS(=O)(=O)c3ccccc3C(F)(F)F)c2)c(-c2ccnc(Nc3ccc(N4CCOCC4)nc3)n2)s1 [Example 135]
< 100 nM	< 100 nM	< 100 nM	< 100 nM	< 100 nM	COc1cc(OC2CCN(CCS(C)(=O)=O)CC2)c(C)cc1Nc1nccc(-c2sc(C(C)C)nc2-c2cccc(NS(=O)(=O)c3c(F)cccc3F)c2)n1 [Example 158]
> 1000 nM	100 to 1000 nM	< 100 nM	> 1000 nM	> 1000 nM	COc1cc(N2CCC(CCS(C)(=O)=O)CC2)c(C)cc1Nc1nccc(-c2sc(C(C)C)nc2-c2ccnc(NS(=O)(=O)c3c(F)cccc3F)c2)n1 [Example 108]
< 100 nM	< 100 nM	< 100 nM	< 100 nM	< 100 nM	COc1cc(N2CCN(CCS(C)(=O)=O)CC2)c(C)cc1Nc1nccc(-c2sc(C3CCOCC3)nc2-c2cccc(NS(=O)(=O)c3c(F)cccc3F)c2F)n1 [Example 177]
> 1000 nM	100 to 1000 nM	< 100 nM	> 1000 nM	> 1000 nM	CS(=O)(=O)N1CCN(c2ccc(Nc3nccc(-c4oc(N5CCCC5)nc4-c4ccc(F)c(NS(=O)(=O)c5ccccc5F)c4)n3)cn2)CC1 [Example 60]
